Results: patent publication US20230296616A1, “ARGININE FLUORESCENT PROBE, PREPARATION METHOD THEREFOR AND APPLICATION THEREOF” (East China University of Science and Technology, priority 2020, published 2023)

Key:
[1] = specific detection of 20 amino acids by arginine fluorescent sensors; assay type: biochemical; conditions: FIG. 8
[2] = target: T1, STM4351-104/110-cpYFP, SEQ ID NO: 7 (arginine-binding protein STM4351 derived from Salmonella Typhimurium, SEQ ID NO: 1) (Salmonella enterica, UniProt Q8ZKA9, DELINS105-109[…]); assay: fluorescence spectra of sensor with and without arginine; assay type: biochemical; conditions: 500 mM vs 0 mM arginine
T1 construct: His-tag, pET28a, E. coli JM109(DE3), purified
Method: (§1) • 1. The pET28a based arginine sensor plasmid was transformed into JM109 (DE3), incubated inverted overnight, and the clones were picked from the plates into 250 ml Erlenmeyer flasks, placed in a shaker at 37° C. and incubated at 220 rpm to OD=0.4-0.8, then 1/1000 (V/V) of IPTG (1 M) was added to induce expression at 18° C. for 24-36 h. • 2. Upon completion of inducible expression, cells were harvested by centrifugation at 4000 rpm for 30 min, resuspended in 50 mM phosphate buffer and disrupted ultrasonically until the broth were clear, centrifuged at 9600 rpm at 4° C. for 20 min. • 3. […] 100 μl 5 μM of protein solution was taken, incubated at 37° C. for 5 min, arginine was added to mix to a final concentration of 100 mM, respectively, the optical absorption of the protein at 340 nm was determined using a multifunctional fluorescence microplate reader. • 6. 100 μl 1 μM of fluorescent sensor solution was taken, incubated at 37° C. for 5 min, arginine was added for titration, and the fluorescence intensity of 528 nm emission after 485 nm fluorescence excitation of the protein was measured. The fluorescence excitation and emission determination of the samples were done using a multifunctional fluorescence microplate reader. • 7. […] Determination of the absorption and fluorescence spectra of the samples was done by spectrophotometer and spectrofluorometer. […]

[3] = target: T2, STM4351-199/200-cpYFP, SEQ ID NO: 22, expressed in the cytosol of HeLa cells (arginine-binding protein STM4351 derived from Salmonella Typhimurium, SEQ ID NO: 1 (Salmonella enterica, UniProt Q8ZKA9, INS199[…]); assay: dynamic monitoring of arginine transmembrane transport in HeLa cells; assay type: cell-based; conditions: after 2 hours of starvation, 10 mM arginine, 20 minutes
T2 construct: expressed in cytosol of HeLa cells from pAAV plasmid
Method: • 1. PAAV-based arginine optical sensor plasmids were transfected into HeLa by using the transfection reagent Lipofectamine2000 (Invitrogen) and incubated in a cell incubator at 37° C. with 5% CO2. After the exogenous gene was fully expressed for 24˜36 hours, the fluorescence detection was performed. • 2. After induction of expression, adherent HeLa cells were washed three times with PBS and placed in HMS solution for fluorescence microscopy and microplate reader assays, respectively.
36 hours after transfection of HeLa cells with plasmids encoding cytosolically expressed optical sensor STM4351-199/200-cpYFP, cells were rinsed using PBS, placed in HMS solution, and then changes in the ratio of the fluorescence intensity at 528 nm emission excited at 420 nm to that at 528 nm emission excited at 485 nm were detected over 40 min. After 2 hours of starvation, the ratio 485/420 increased gradually after adding 10 mM arginine for 20 minutes, and the highest ratio was 2.2 times. Same as STM4351-105/110-cpYFP sensor and STM4351-200/203-cpYFP sensor.

[4] = target: T3, STM4351-cpYFP fusion protein, insertion site 199/200, SEQ ID NO: 22 (arginine-binding protein STM4351 derived from Salmonella Typhimurium, SEQ ID NO: 1) (Salmonella enterica, UniProt Q8ZKA9, INS199[…]); assay: concentration gradient arginine detection (fluorescence ratio titration)
T3 construct: His-tag, pET28a, E. coli JM109(DE3), purified
Method: (§2) • 1. The pET28a based arginine sensor plasmid was transformed into JM109 (DE3), incubated inverted overnight, and the clones were picked from the plates into 250 ml Erlenmeyer flasks, placed in a shaker at 37° C. and incubated at 220 rpm to OD=0.4-0.8, then 1/1000 (V/V) of IPTG (1 M) was added to induce expression at 18° C. for 24-36 h. • 2. Upon completion of inducible expression, cells were harvested by centrifugation at 4000 rpm for 30 min, resuspended in 50 mM phosphate buffer and disrupted ultrasonically until the broth were clear, centrifuged at 9600 rpm at 4° C. for 20 min. • 3. The centrifuged supernatant was used to obtain protein by purification through a self packed nickel column affinity chromatography column, and the protein obtained after nickel column affinity chromatography was further used to obtain protein dissolved in 20 mM MOPS buffer (pH 7.4) or phosphate buffer PBS. • 4. After purified arginine-binding protein muteins were subjected to SDS-PAGE, sensors were diluted to a protein solution having a final concentration of 5-10 μM using assay buffer (100 mm HEPES, 100 mM NaCl, pH 7.3) or phosphate buffer PBS. Arginine was formulated as a stock solution at a final concentration of 1 M with assay buffer (20 mM MOPS, pH 7.4) or phosphate buffer PBS. • 5. 100 μl 5 μM of protein solution was taken, incubated at 37° C. for 5 min, arginine was added to mix to a final concentration of 100 mM, respectively, the optical absorption of the protein at 340 nm was determined using a multifunctional fluorescence microplate reader. • 6. 100 μl 1 μM of fluorescent sensor solution was taken, incubated at 37° C. for 5 min, arginine was added for titration, and the fluorescence intensity of 528 nm emission after 485 nm fluorescence excitation of the protein was measured. The fluorescence excitation and emission determination of the samples were done using a multifunctional fluorescence microplate reader. • 7. 100 μl 1 μM of fluorescent sensor solution was taken, incubated at 37° C. for 5 min, and arginine was added to determine the absorption and fluorescence spectra of the sensor proteins. Determination of the absorption and fluorescence spectra of the samples was done by spectrophotometer and spectrofluorometer.

[5] = target: T4, STM4351-cpYFP fusion protein, insertion site 105/110, SEQ ID NO: 11 (arginine-binding protein STM4351 derived from Salmonella Typhimurium, SEQ ID NO: 1) (Salmonella enterica, UniProt Q8ZKA9, DELINS107-109[…]); assay: as above
T4 construct: His-tag, pET28a, E. coli JM109(DE3), purified
Method: as §2

[6] = target: T5, STM4351-cpYFP fusion protein, insertion site 200/205, SEQ ID NO: 29 (arginine-binding protein STM4351 derived from Salmonella Typhimurium, SEQ ID NO: 1) (Salmonella enterica, UniProt Q8ZKA9, DELINS201-204[…]); assay: as above
T5 construct: His-tag, pET28a, E. coli JM109(DE3), purified
Method: as §2

[7] = target: T6, STM4351-cpYFP fusion protein, insertion site 200/203, SEQ ID NO: 27 (arginine-binding protein STM4351 derived from Salmonella Typhimurium, SEQ ID NO: 1) (Salmonella enterica, UniProt Q8ZKA9, DELINS201-202[…]); assay: as above
T6 construct: His-tag, pET28a, E. coli JM109(DE3), purified
Method: as §2

[8] = target: T3, STM4351-cpYFP fusion protein, insertion site 199/200, SEQ ID NO: 22 (arginine-binding protein STM4351 derived from Salmonella Typhimurium, SEQ ID NO: 1); assay: screening of purified fusion protein for arginine response; assay type: biochemical; conditions: cpYFP at 199/200; 100 mM arginine vs without arginine
Method: as §2

[9] = target: T7, STM4351-cpYFP fusion protein, insertion site 107/111, SEQ ID NO: 15 (arginine-binding protein STM4351 derived from Salmonella Typhimurium, SEQ ID NO: 1) (Salmonella enterica, UniProt Q8ZKA9, DELINS108-110[…]); assay: as above; assay type: biochemical; conditions: cpYFP at 107/111; 100 mM arginine vs without arginine
T7 construct: His-tag, pET28a, E. coli JM109(DE3), purified
Method: as §2

[10] = target: T4, STM4351-cpYFP fusion protein, insertion site 105/110, SEQ ID NO: 11 (arginine-binding protein STM4351 derived from Salmonella Typhimurium, SEQ ID NO: 1); assay: as above; assay type: biochemical; conditions: cpYFP at 105/110; 100 mM arginine vs without arginine
Method: as §2

[11] = target: T5, STM4351-cpYFP fusion protein, insertion site 200/205, SEQ ID NO: 29 (arginine-binding protein STM4351 derived from Salmonella Typhimurium, SEQ ID NO: 1); assay: as above; assay type: biochemical; conditions: cpYFP at 200/205; 100 mM arginine vs without arginine
Method: as §2

[12] = target: T8, STM4351-cpYFP fusion protein, insertion site 104/110, SEQ ID NO: 7 (arginine-binding protein STM4351 derived from Salmonella Typhimurium, SEQ ID NO: 1) (Salmonella enterica, UniProt Q8ZKA9, DELINS105-109[…]); assay: as above; assay type: biochemical; conditions: cpYFP at 104/110; 100 mM arginine vs without arginine
T8 construct: His-tag, pET28a, E. coli JM109(DE3), purified
Method: as §2

[13] = target: T6, STM4351-cpYFP fusion protein, insertion site 200/203, SEQ ID NO: 27 (arginine-binding protein STM4351 derived from Salmonella Typhimurium, SEQ ID NO: 1); assay: as above; assay type: biochemical; conditions: cpYFP at 200/203; 100 mM arginine vs without arginine
Method: as §2

[14] = target: T9, STM4351-107/111-cpYFP variant S30N, SEQ ID NO: 40 (arginine-binding protein STM4351 derived from Salmonella Typhimurium) (Salmonella enterica, UniProt Q8ZKA9, DELINS108-110[…]/S30N); assay: fluorescence detection of mutated cpYFP optical sensor; assay type: biochemical; conditions: S30N-107/111; detected according to Example 2
T9 construct: His-tag, pET28a, E. coli JM109(DE3), purified
Method: as §1

[15] = target: T10, STM4351-107/111-cpYFP variant D177N, SEQ ID NO: 41 (arginine-binding protein STM4351 derived from Salmonella Typhimurium) (Salmonella enterica, UniProt Q8ZKA9, D177N/DELINS108-110[…]); assay: as above; assay type: biochemical; conditions: D177N-107/111; detected according to Example 2
T10 construct: His-tag, pET28a, E. coli JM109(DE3), purified
Method: as §1

Molecule | specificity for arginine [1] | decrease of fluorescence intensity excited at 420 nm ([2]; excited at 420 nm) | increase in fluorescence intensity under excitation at 485 nm ([2]; excited at 485 nm) | highest ratio 485/420 [3] | change amplitude [4] | change amplitude [5] | change amplitude [6] | change amplitude [7] | response to arginine relative to control [8] | response to arginine relative to control [9] | response to arginine relative to control [10] | response to arginine relative to control [11] | response to arginine relative to control [12] | response to arginine relative to control [13] | response to arginine relative to control [14] | response to arginine relative to control [15]
199/201: arginine sensor: cpYFP inserted at site 199/201 of STM4351 | good specificity for arginine | – | – | – | – | – | – | – | – | – | – | – | – | – | – | –
N=C(N)NCCC[C@H](N)C(=O)O [arginine] | – | 1.4 times | 2.0 fold | 2.2 times | 11.0 times | 4.3 times | 3.0 times | 8.6 times | more than 2 fold | more than 2 fold | more than 2 fold | more than 2 fold | more than 2 fold | more than 2 fold | more than 3 times | more than 3 times
